In brackets after ≈: the same amount, converted by molar mass.
How the values were obtained:
[1] = test system: Abs. corym. 1; assay: Agar dilution test, minimal inhibitory concentration in vitro; assay type: cell-based; details: read-out: Minimale Hemmkonzentration (MHK) Abs. corym. 1
Description: (§1) Die Wirkung gegen Dermatophyten, Bakterien und Protozonen kann nach Methoden, wie sie beispielsweise in P. Klein, Bakteriologische Grundlagen der chemotherapeutischen Laboratoriumspraxis, Springer-Verlag Berlin, 1957, beschrieben wird, aufgezeigt werden. Die überraschende Wirkung gegenüber Hefen wurde im Pseudomyzel- und Myzelphasentest mit Candida albicans nachgewiesen (vgl. DE-OS 30 10 093). Es wurde geprüft, welche minimalen Hemmkonzentrationen (MHK-Werte) im Agardilutionstest erreicht werden. In der Tabelle 1 sind die Ergebnisse zusammengefaßt.

[2] = test system: Aps.fum. 2; assay: as above; assay type: cell-based; details: read-out: Minimale Hemmkonzentration (MHK) Aps.fum. 2
Description: as §1

[3] = test system: E.coli muta-flor; assay: as above; assay type: cell-based; details: Escherichia coli, read-out: Minimale Hemmkonzentration (MHK) E.coli muta-flor
Description: as §1

[4] = test system: Microsp. ferrug. 5; assay: as above; assay type: cell-based; details: read-out: Minimale Hemmkonzentration (MHK) Microsp. ferrug. 5
Description: as §1

[5] = test system: Mucor pus. 6; assay: as above; assay type: cell-based; details: read-out: Minimale Hemmkonzentration (MHK) Mucor pus. 6
Description: as §1

[6] = test system: Staph. aur. SG 511; assay: as above; assay type: cell-based; details: read-out: Minimale Hemmkonzentration (MHK) Staph. aur. SG 511
Description: as §1

[7] = test system: Strept. faec. 8043; assay: as above; assay type: cell-based; details: read-out: Minimale Hemmkonzentration (MHK) Strept. faec. 8043
Description: as §1

[8] = test system: Cand.alb. H; assay: Candida albicans pseudomycelium/mycelium phase test, MIC; assay type: cell-based; details: in vitro, column H, read-out: Minimale Hemmkonzentration (MHK) Cand.alb. H
Description: as §1

[9] = test system: Cand.alb. M; assay: Candida albicans pseudomycelium/mycelium phase test, MIC (column M); assay type: cell-based; details: in vitro, read-out: Minimale Hemmkonzentration (MHK) Cand.alb. M
Description: as §1

[10] = test system: Trichom. vag.; assay: Minimal inhibitory concentration in vitro (protozoa); assay type: cell-based; details: read-out: Minimale Hemmkonzentration (MHK) Trichom. vag.
Description: as §1

[11] = test system: Weizenbraunrost (Puccinia recondita); assay: Versuch 2: activity against wheat brown rust on wheat seedlings; assay type: in vivo; details: 0,025; 0,006; 0,0015 %ige Spritzbrühen; sprayed 24 h after inoculation; assessed after 8 days; value given as 'beispielsweise'
Procedure: Blätter von in Töpfen gewachsenen Weizensämlingen der Sorte "Jubilar" wurden mit Sporen des Braunrostes (Puccinia recondita) bestäubt. Danach wurden die Töpfe für 24 Stunden bei 20 bis 22°C in eine Kammer mit hoher Luftfeuchtigkeit (90 bis 95 %) gestellt. Während dieser Zeit keimten die Sporen aus und die Keimschläuche drangen in das Blattgewebe ein. Die infizierten Pflanzen wurden anschließend mit wäßrigen Spritzbrühen, die 80 % Wirkstoff und 20 % Emulgiermittel in der Trockensubstanz enthielten, tropfnaß gespritzt. Nach dem Antrocknen des Spritzbelages wurden die Versuchspflanzen im Gewächshaus bei Temperaturen zwischen 20 und 22°C und 65 bis 70 % relativer Luftfeuchte aufgestellt. Nach 8 Tagen wurde das Ausmaß der Rostpilzentwicklung auf den Blättern ermittelt.

[12] = test system: Gurkenmehltau (Erysiphe cichoracearum); assay: Versuch 3: activity against cucumber powdery mildew on cucumber seedlings; assay type: in vivo; details: 0,025 %ige Spritzbrühe; sprayed about 20 h after inoculation; assessed after 21 days; value given as 'beispielsweise'
Description: Blätter von in Töpfen gewachsenen Gurkenkeimlingen der Sorte "Chinesische Schlange" wurden im Zweiblattstadium mit einer Sporensuspension des Gurkenmehltaus (Erysiphe cichoracearum) besprüht. Nach etwa 20 Stunden wurden die Versuchspflanzen mit wäßriger Spritzbrühe, die 80 % Wirkstoff und 20 % Emulgiermittel in der Trockensubstanz enthielt, bis zur Tropfnässe besprüht. Nach dem Antrocknen des J Spritzbelages wurden sie anschließend im Gewächshaus bei Temperaturen zwischen 20 und 22^00 und 70 bis 80 % relativer Luftfeuchtigkeit aufgestellt. Zur Beurteilung der Wirksamkeit der neuen Stoffe wurde das Ausmaß der Pilzentwicklung nach 21 Tagen beurteilt.

[13] = test system: Botrytis cinerea; assay: Versuch 4: activity against Botrytis cinerea on paprika seedlings; assay type: in vivo; details: 0,05 %ige Spritzbrühe; sprayed before inoculation; assessed after 5 days; value given as 'beispielsweise'
Description: Paprikasämlinge der Sorte "Neusiedler Ideal Elite" wurden, nachdem sich 4 bis 5 Blätter gut entwickelt hatten, mit wäßrigen Suspensionen, die 80 % Wirkstoff und 20 % Emulgiermittel in der Trockensubstanz enthielten, tropfnaß gespritzt. Nach dem Antrocknen des Spritzbelages wurden die Pflanzen mit einer Konidienaufschwemmung des Pilzes Botrytis cenerea besprüht und bei 22 bis 24 C in eine Kammer mit hoher Luftfeuchtigkeit gestellt. Nach 5 Tagen hatte sich die Krankheit auf den unbehandelten Kontrollpflanzen so stark entwickelt, daß die entstandenen Blattnekrosen den überwiegenden Teil der Blätter bedeckten.

[14] = test system: Epid. flocc. 157; assay: Agar dilution test, minimal inhibitory concentration in vitro; assay type: cell-based; details: read-out: Minimale Hemmkonzentration (MHK) Epid. flocc. 157
Description: as §1

[15] = test system: Trichoph. ment. 21; assay: as above; assay type: cell-based; details: read-out: Minimale Hemmkonzentration (MHK) Trichoph. ment. 21
Description: as §1

[16] = test system: Chaetomium globosum; assay: Versuch 6: fungal growth on malt extract agar containing active ingredient; assay type: cell-based; design: key: 0 = kein Pilzwachstum (Pilzmyzel abgetötet); 1 = geringes Pilzwachstum (bis 1/3 der Agaroberfläche bewachsen); 3 = mittleres Pilzwachstum (bis 2/3 der Agaroberfläche bewachsen); 5 = ungehemmtes Pilzwachstum (gesamte Agaroberfläche bewachsen); details: 40 ppm in 5 % malt extract agar; 5 days at 25 °C; growth score
Description: (§2) Die Wirkstoffe werden in Aceton gelöst, in Mengen von 40 ppm einem verflüssigten 5 %igen Malzextraktagar zugesetzt. Der Agar wird in Petrischalen ausgegossen und nach dem Erstarren werden die fungizidhaltigen Nähragarplatten zentral mit Myzel der holzzerstörenden Pilze Coniophora puteana und Trametes versicolor, des Moderfäule und Stockflecken verursachenden Pilzes Chaetomium globosum sowie mit Sporen des grünen Holzschimmels Trichoderma viride beimpft.
(§3) Nach fünftägiger Bebrütung der Schalen bei 25 °C wird die Entwicklung der Pilzkolonien auf dem Nährboden im Vergleich mit der Kontrolle (ohne Wirkstoff-Zusatz) beurteilt: • 0 = kein Pilzwachstum (Pilzmyzel abgetötet) • 1 = geringes Pilzwachstum (bis 1/3 der Agaroberfläche bewachsen) • 3 = mittleres Pilzwachstum (bis 2/3 der Agaroberfläche bewachsen) • 5 = ungehemmtes Pilzwachstum (gesamte Agaroberfläche bewachsen)

[17] = test system: Coniophora puteana; assay: as above; assay type: cell-based; design: key: 0 = kein Pilzwachstum (Pilzmyzel abgetötet); 1 = geringes Pilzwachstum (bis 1/3 der Agaroberfläche bewachsen); 3 = mittleres Pilzwachstum (bis 2/3 der Agaroberfläche bewachsen); 5 = ungehemmtes Pilzwachstum (gesamte Agaroberfläche bewachsen); details: 40 ppm in 5 % malt extract agar; 5 days at 25 °C; growth score
Description: as §2, §3

[18] = test system: Trametes versicolor; assay: as above; assay type: cell-based; design: key: 0 = kein Pilzwachstum (Pilzmyzel abgetötet); 1 = geringes Pilzwachstum (bis 1/3 der Agaroberfläche bewachsen); 3 = mittleres Pilzwachstum (bis 2/3 der Agaroberfläche bewachsen); 5 = ungehemmtes Pilzwachstum (gesamte Agaroberfläche bewachsen); details: 40 ppm in 5 % malt extract agar; 5 days at 25 °C; growth score
Description: as §2, §3

[19] = test system: Trichoderma viride; assay: as above; assay type: cell-based; design: key: 0 = kein Pilzwachstum (Pilzmyzel abgetötet); 1 = geringes Pilzwachstum (bis 1/3 der Agaroberfläche bewachsen); 3 = mittleres Pilzwachstum (bis 2/3 der Agaroberfläche bewachsen); 5 = ungehemmtes Pilzwachstum (gesamte Agaroberfläche bewachsen); details: 40 ppm in 5 % malt extract agar; 5 days at 25 °C; growth score
Description: as §2, §3

[20] = test system: Weizenmehltau (Erysiphe graminis var. tritici); assay: Versuch 1: activity against wheat powdery mildew on wheat seedlings; assay type: in vivo; details: 0,025; 0,006; 0,0015 %ige Spritzbrühen; sprayed 24 h before inoculation; assessed after 7 days; value given as 'beispielsweise'
Procedure: Blätter von in Töpfen gewachsenen Weizenkeimlingen der Sorte "Jubilar" wurden mit wäßriger Spritzbrühe, die 80 % (Gew.%) Wirkstoff und 20 % Emulgiermittel in der Trockensubstanz enthielt, besprüht und 24 Stunden nach dem Antrocknen des Spritzbelages mit Oidien (Sporen) des Weizenmehltaus (Erysiphe graminis var. tritici) bestäubt. Die Versuchspflanzen wurden anschließend im Gewächshaus bei Temperaturen zwischen 20 und 22 °C und 75 bis 80 % relativer Luftfeuchtigkeit aufgestellt. Nach 7 Tagen wurde das Ausmaß der Mehltauentwicklung ermittelt.

| SMILES | fungizide Wirkung gegen Weizenbraunrost [11] [%] | fungizide Wirkung gegen Gurkenmehltau [12] [%] | fungizide Wirkung gegen Botrytis cinerea an Paprika [13] [%] | Wirksamkeit gegen Chaetomium globosum [16] | Wirksamkeit gegen Coniophora puteana [17] | Wirksamkeit gegen Trametes versicolor [18] | Wirksamkeit gegen Trichoderma viride [19] | further results |
| --- | --- | --- | --- | --- | --- | --- | --- | --- |
| Clc1ccc(C2OC2(Cn2ccnc2)c2ccccc2)c(Cl)c1 (single isomer, unassigned) [Beispiel 6] | 100 | 100 | 97 | – | – | – | – | MIC [1]: 8 µg/mL (≈ 23.2 µM); MIC [2]: 0.0625 µg/mL (≈ 0.181 µM); MIC [3]: > 128 µg/mL; MIC [4]: 0.0625 µg/mL (≈ 0.181 µM); MIC [5]: 4 µg/mL (≈ 11.6 µM); MIC [6]: 16 µg/mL (≈ 46.3 µM); MIC [7]: 16 µg/mL (≈ 46.3 µM); MIC [8]: 32 µg/mL (≈ 92.7 µM); MIC [9]: < 0.0039 µg/mL; MIC [10]: > 16 µg/mL |
| Clc1ccc(C2OC2(Cn2ccnc2)c2ccc(Br)cc2)c(Cl)c1 (single isomer, unassigned) [Beispiel 7] | – | – | – | – | – | – | – | MIC [1]: 1 µg/mL (≈ 2.36 µM); MIC [2]: 4 µg/mL (≈ 9.43 µM); MIC [3]: > 128 µg/mL; MIC [14]: 1 µg/mL (≈ 2.36 µM); MIC [4]: 0.25 µg/mL (≈ 0.589 µM); MIC [5]: 2 µg/mL (≈ 4.72 µM); MIC [6]: 16 µg/mL (≈ 37.7 µM); MIC [7]: 16 µg/mL (≈ 37.7 µM); MIC [15]: 1 µg/mL (≈ 2.36 µM); MIC [8]: 16 µg/mL (≈ 37.7 µM); MIC [9]: 0.0156 µg/mL (≈ 0.0368 µM); MIC [10]: > 16 µg/mL |
| Clc1ccc(C2(Cn3ccnc3)OC2c2ccccc2)cc1 (single isomer, unassigned) [Beispiel 9] | – | – | – | – | – | – | – | MIC [1]: 4 µg/mL (≈ 12.9 µM); MIC [2]: 16 µg/mL (≈ 51.5 µM); MIC [3]: > 128 µg/mL; MIC [14]: 1 µg/mL (≈ 3.22 µM); MIC [4]: 0.25 µg/mL (≈ 0.804 µM); MIC [5]: 2 µg/mL (≈ 6.44 µM); MIC [6]: 128 µg/mL (≈ 412 µM); MIC [7]: 128 µg/mL (≈ 412 µM); MIC [15]: 1 µg/mL (≈ 3.22 µM); MIC [8]: > 1 µg/mL; MIC [10]: > 16 µg/mL |
| Clc1ccc(C2OC2(Cn2cncn2)c2ccc(Br)cc2)c(Cl)c1 (single isomer, unassigned) [Beispiel 10] | 100 | 100 | 97 | 0 | 0 | 0 | 0 | – |
| CC(C)(C)C1(Cn2ccnc2)OC1c1ccc(Cl)cc1 (single isomer, unassigned) [Beispiel 14] | – | 100 | – | 0 | 0 | 0 | 0 | – |
| CC(C)(C)C1(Cn2cncn2)OC1c1ccccc1 (single isomer, unassigned) [Beispiel 15] | – | 100 | – | 3 | 0 | 0 | 1 | – |
| CC1(Cn2cncn2)OC1c1ccc(Cl)cc1Cl (single isomer, unassigned) [Beispiel 23] | – | – | – | 0 | 0 | 0 | 0 | – |
| Fc1ccc(C2OC2(Cn2cncn2)c2ccc(Cl)cc2)cc1 (single isomer, unassigned) [Beispiel 45] | – | 100 | – | 1 | 0 | 0 | 0 | – |
| Clc1ccc(C2(Cn3ccnc3)OC2c2ccc(Br)cc2)cc1 (single isomer, unassigned) [Beispiel 48] | – | – | – | 0 | 0 | 0 | 0 | – |
| Clc1ccc(C2(Cn3ccnc3)OC2c2ccc(Br)cc2)c(Cl)c1 (single isomer, unassigned) [Beispiel 49] | – | – | – | 1 | 0 | 0 | 0 | – |
| OC(Cn1ccnc1)c1ccc(Cl)cc1Cl (stereo not shown) [Wirkstoff A, 1-(2,4-Dichlorphenyl)-2-(imidazol-1-yl)-ethan-1-ol, reference compound] | 50 | – | 70 | – | – | – | – | fungizide Wirkung gegen Weizenmehltau [20]: 90% |
| O=C(Cn1cncn1)c1ccc(Cl)cc1Cl [Wirkstoff B, (2,4-Dichlorphenyl)-1,2,4-triazol-1-yl-methylketon, reference compound] | 50 | – | 70 | – | – | – | – | fungizide Wirkung gegen Weizenmehltau [20]: 90% |
